Measured values published in ChEMBL document CHEMBL4834394, “Neobulgarones Revisited: Anti and Syn Bianthrones from an Australian Mud Dauber Wasp Nest-Associated Fungus, Penicillium sp. CMB-MD22” (J Nat Prod, 2021).
Activity calls are given as the source filed them. No cut-off for these calls is given here.

Experiments:
Escherichia coli = assay: Antibacterial activity against Escherichia coli ATCC 11775 assessed as inhibition of bacterial growth incubated for 24 hrs; format: functional, organism-based; settings: ATCC 11775, 24 h
Staphylococcus aureus = assay: Antibacterial activity against Staphylococcus aureus ATCC 25923 assessed as inhibition of bacterial growth incubated for 24 hrs; format: functional, organism-based; settings: ATCC 25923, 24 h
SW-620 = assay: Cytotoxicity against human SW620 cells after 48 hrs by MTT assay; format: functional, cell-based
Candida albicans = assay: Antifungal activity against Candida albicans ATCC 10231 assessed as inhibition of fungal growth incubated for 24 hrs; format: functional, organism-based; settings: ATCC 10231, 24 h
[1] = biological target: ATP-dependent translocase ABCB1 (Homo sapiens, UniProt P08183); assay: Reversal of P-gp mediated doxorubicin resistance in human SW620 Ad300 cells overexpressing P-gp at 30 uM after 48 hrs by MTT assay; format: cell-based; settings: sw-620, 48 h
Chain of ATP-dependent translocase ABCB1 (P08183 whole entry): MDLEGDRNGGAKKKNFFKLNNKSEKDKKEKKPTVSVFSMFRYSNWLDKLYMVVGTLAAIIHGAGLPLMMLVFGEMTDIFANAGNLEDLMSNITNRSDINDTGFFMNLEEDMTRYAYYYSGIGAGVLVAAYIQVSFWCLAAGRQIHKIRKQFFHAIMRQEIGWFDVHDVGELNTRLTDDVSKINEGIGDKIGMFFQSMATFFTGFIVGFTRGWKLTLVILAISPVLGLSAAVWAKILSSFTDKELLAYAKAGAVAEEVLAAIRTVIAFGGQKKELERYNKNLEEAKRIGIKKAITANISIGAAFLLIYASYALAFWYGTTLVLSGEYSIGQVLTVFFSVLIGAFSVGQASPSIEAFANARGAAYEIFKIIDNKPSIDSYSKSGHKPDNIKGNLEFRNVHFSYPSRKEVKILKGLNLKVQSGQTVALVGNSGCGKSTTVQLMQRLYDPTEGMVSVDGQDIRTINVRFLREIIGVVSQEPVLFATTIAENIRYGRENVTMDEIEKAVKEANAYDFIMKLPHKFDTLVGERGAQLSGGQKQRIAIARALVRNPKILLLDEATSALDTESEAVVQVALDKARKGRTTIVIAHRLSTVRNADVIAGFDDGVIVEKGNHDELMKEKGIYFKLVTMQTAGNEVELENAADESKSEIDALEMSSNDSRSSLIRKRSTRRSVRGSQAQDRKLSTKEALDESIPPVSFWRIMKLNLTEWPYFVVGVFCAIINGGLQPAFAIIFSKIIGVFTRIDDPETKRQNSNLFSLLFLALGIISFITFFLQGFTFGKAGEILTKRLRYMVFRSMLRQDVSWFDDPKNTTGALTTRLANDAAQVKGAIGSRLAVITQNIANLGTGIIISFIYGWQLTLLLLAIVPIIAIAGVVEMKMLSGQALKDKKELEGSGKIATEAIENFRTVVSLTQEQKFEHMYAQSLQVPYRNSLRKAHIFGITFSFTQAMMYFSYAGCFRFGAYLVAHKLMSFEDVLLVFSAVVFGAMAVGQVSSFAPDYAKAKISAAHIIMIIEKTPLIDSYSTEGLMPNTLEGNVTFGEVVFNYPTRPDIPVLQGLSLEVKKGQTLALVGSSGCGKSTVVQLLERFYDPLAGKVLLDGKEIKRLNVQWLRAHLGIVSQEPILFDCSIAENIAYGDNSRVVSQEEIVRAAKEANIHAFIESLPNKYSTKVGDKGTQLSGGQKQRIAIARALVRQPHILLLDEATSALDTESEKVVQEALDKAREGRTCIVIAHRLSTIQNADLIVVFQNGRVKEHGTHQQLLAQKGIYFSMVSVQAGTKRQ

Activity [1]	Structure (SMILES)	IC50 (Escherichia coli)	IC50 (Staphylococcus aureus)	Activity (SW-620)	IC50 (Candida albicans)
Not Active	COc1cc(C)cc2c1C(=O)c1c(O)cc(O)c(Cl)c1C2O (stereo not given)	> 30 µM	> 30 µM	inactive	> 30 µM
Not Active	COc1cc(C)cc2c1C(=O)c1c(cc(O)c(OC)c1O)[C@@H]2[C@@H]1c2cc(C)cc(OC)c2C(=O)c2c(O)cc(O)c(Cl)c21	> 30 µM	> 30 µM	inactive	> 30 µM
Not Active	COc1cc(C)cc2c1C(=O)c1c(cc(O)c(OC)c1O)C2=O	> 30 µM	> 30 µM	inactive	> 30 µM
Not Active	COc1cc(CO)cc2c1C(=O)c1c(cc(O)c(OC)c1O)C2=O	> 30 µM	> 30 µM	inactive	> 30 µM
Not Active	COc1cc(CO)cc2c1C(=O)c1c(O)cc(O)cc1C2=O [CARVIOLIN]	> 30 µM	> 30 µM	inactive	> 30 µM
Not Active	COc1cc(C)cc2c1C(=O)c1c(O)cc(O)cc1C2=O [1-O-METHYLEMODIN]	> 30 µM	> 30 µM	inactive	> 30 µM

The remaining lines, values behind:

Structure (SMILES)	Activity [1]	IC50 (Escherichia coli)	IC50 (Staphylococcus aureus)	Activity (SW-620)	IC50 (Candida albicans)
COc1cc(C)cc2c1C(=O)c1c(O)c(OC)c(O)c(Cl)c1[C@@H]2[C@@H]1c2cc(C)cc(OC)c2C(=O)c2c(O)c(OC)c(O)c(Cl)c21	Not Active	> 30 µM	> 30 µM	inactive	> 30 µM
COc1cc(C)cc2c1C(=O)c1c(cc(O)c(OC)c1O)[C@@H]2[C@@H]1c2cc(C)cc(OC)c2C(=O)c2c(O)c(OC)c(O)c(Cl)c21	Not Active	> 30 µM	> 30 µM	inactive	> 30 µM
COc1cc(C)cc2c1C(=O)c1c(O)cc(O)c(Cl)c1[C@@H]2[C@@H]1c2cc(C)cc(OC)c2C(=O)c2c(O)cc(O)c(Cl)c21	Not Active	> 30 µM	> 30 µM	inactive	> 30 µM
COc1cc(C)cc2c1C(=O)c1c(cc(O)c(OC)c1O)[C@H]2[C@@H]1c2cc(C)cc(OC)c2C(=O)c2c(O)cc(O)c(Cl)c21	Not Active	> 30 µM	> 30 µM	inactive	> 30 µM
COc1cc(C)cc2c1C(=O)c1c(O)cc(O)c(Cl)c1[C@@H]2[C@@H]1c2cc(C)cc(OC)c2C(=O)c2c(O)c(OC)c(O)c(Cl)c21	Not Active	> 30 µM	> 30 µM	inactive	> 30 µM
COc1cc(C)cc2c1C(=O)c1c(O)cc(O)c(Cl)c1[C@@H]2[C@H]1c2cc(C)cc(OC)c2C(=O)c2c(O)cc(O)c(Cl)c21	Not Active	> 30 µM	> 30 µM	inactive	> 30 µM
COc1cc(C)cc2c1C(=O)c1c(O)cc(O)cc1[C@@H]2[C@@H]1c2cc(C)cc(OC)c2C(=O)c2c(O)c(OC)c(O)c(Cl)c21	Not Active	> 30 µM	> 30 µM	inactive	> 30 µM
COc1cc(C)cc2c1C(=O)c1c(O)c(OC)c(O)c(Cl)c1[C@@H]2[C@H]1c2cc(C)cc(OC)c2C(=O)c2c(O)c(OC)c(O)c(Cl)c21	Not Active	> 30 µM	> 30 µM	inactive	> 30 µM
COc1cc(C)cc2c1C(=O)c1c(O)cc(O)cc1[C@@H]2[C@@H]1c2cc(C)cc(OC)c2C(=O)c2c(O)cc(O)c(Cl)c21	Not Active	> 30 µM	> 30 µM	inactive	> 30 µM
COc1cc(C)cc2c1C(=O)c1c(O)c(OC)c(O)c(Cl)c1[C@@H]2[C@H]1c2cc(C)cc(OC)c2C(=O)c2c(O)cc(O)c(Cl)c21	Not Active	> 30 µM	> 30 µM	inactive	> 30 µM
